From publication PMC8406319, “The dCache Chemoreceptor TlpA of Helicobacter pylori Binds Multiple Attractant and Antagonistic Ligands via Distinct Sites” (mBio, 2021)
Structures can show the parent of a compound that is named as a salt.

Tested on: TlpALBD point mutants
Assay: SPR binding affinity of TlpALBD point mutants relative to WT
Design: species or system Helicobacter pylori SS1
Conditions: Y228A, Y252A, D254A vs WT
Text: The periplasmic portion of TlpA (TlpALBD), amino acids 28 to 299, from Helicobacter pylori SS1 was cloned into a pBH4 expression vector (pBH4_TlpALBD) to generate an N-terminal 6×His-tagged construct, with a tobacco etch virus (TEV) protease site, under the control of isopropyl-β-D-thiogalactopyranoside (IPTG) ([19]). […] TlpALBD and all point mutants were purified as described previously by Sweeney et al. ([19]).
Purified TlpALBD was immobilized on a CM5 series S sensor chip, and binding affinities were tested using a Biacore S200 instrument (GE Healthcare) as described previously ([39], [57], [59]). Briefly, proteins were captured using an amine-coupling kit (GE Healthcare), in which the carboxylmethyl dextran matrix of the sensor chip was activated by the injection of a mixture of 0.2 M 1-ethyl-3-[(3-dimethylamino)propyl]-carbodiimide (EDC) and 0.05 M N-hydroxysuccinimide (NHS), followed by the neutralization of the remaining unreacted NHS ester groups by the injection of 1 M ethanolamine-HCl (pH 8.0). Purified TlpALBD was diluted in 10 mM sodium acetate buffer (pH 4.5) at a concentration of 100 μg/ml for immobilization to the chip. A total of 8,400 response units (RU) of TlpALBD were captured on flow cell 2. […] The data sets were analyzed using Biacore S200 evaluation software 2.0.2; sensorgrams were double-reference subtracted.

N[C@H]1C(O)O[C@H](CO)[C@@H](O)[C@@H]1O (stereo partly drawn) [Glucosamine, D(+)-glucosamine hydrochloride]
Effect of proximal pocket residue mutations on binding affinity: No proximal pocket residues affected the binding affinity
